Where two headings read alike, the source gives them in different places.
Columns and labels:
[1] = biological target: GST-Bcl-xL (Homo sapiens, UniProt Q07817); settings: read-out: TR-FRET binding Bcl-xL Ki
[2] = tested on: mouse FL5.12 cells transfected with Bcl-XL; experiment: FL5.12 cellular assay (cell viability, CellTiter-Glo); format: cell-based; settings: FL5.12 cells transfected with Bcl-XL, IL-3-depleted, 3% FBS assay media, 24 hours, CellTiter-Glo, read-out: FL5.12 Bcl-xL, - IL3, EC 50;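 further: each EC50 determination derived from duplicate measurements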

GST-Bcl-xL, sequence (Q07817 whole entry): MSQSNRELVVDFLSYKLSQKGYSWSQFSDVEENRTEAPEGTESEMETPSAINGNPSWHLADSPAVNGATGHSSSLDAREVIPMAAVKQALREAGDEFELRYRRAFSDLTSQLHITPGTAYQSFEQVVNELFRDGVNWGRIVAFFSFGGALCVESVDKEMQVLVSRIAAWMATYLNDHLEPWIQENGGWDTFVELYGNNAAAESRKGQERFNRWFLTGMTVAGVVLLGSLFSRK

| Compound | Ki [1] [nM] | EC50 [2] [nM] | EC50 ([2]; Mus musculus) [nM] |
| --- | --- | --- | --- |
| O=C(Nc1nc2ccccc2s1)c1cccc2c1CN(c1ccc(-c3cnn(Cc4cc(F)cc(F)c4)c3)c(C(=O)O)n1)CC2 [Example 53, 6-[8-(1,3-benzothiazol-2-ylcarbamoyl)-3,4-dihydroisoquinolin-2(1H)-yl]-3-[1-(3,5-difluorobenzyl)-1H-pyrazol-4-yl]pyridine-2-carboxylic acid] | 14 | 387 |  |
| O=C(Nc1nc2ccccc2s1)c1cccc2c1CN(c1ccc(-c3cnn(Cc4cc(F)ccc4F)c3)c(C(=O)O)n1)CC2 [Example 54, 6-[8-(1,3-benzothiazol-2-ylcarbamoyl)-3,4-dihydroisoquinolin-2(1H)-yl]-3-[1-(2,5-difluorobenzyl)-1H-pyrazol-4-yl]pyridine-2-carboxylic acid] | 15 |  | 501 |
| O=C(Nc1nc2ccccc2s1)c1cccc2c1CN(c1ccc(-c3cnn(CC4CCCOC4)c3)c(C(=O)O)n1)CC2 (stereo not drawn) [Example 56, 6-[8-(1,3-benzothiazol-2-ylcarbamoyl)-3,4-dihydroisoquinolin-2(1H)-yl]-3-[1-(tetrahydro-2H-pyran-3-ylmethyl)-1H-pyrazol-4-yl]pyridine-2-carboxylic acid] | 24 |  | 583 |
| O=C(Nc1nc2ccccc2s1)c1cccc2c1CN(c1ccc(-c3cnn(Cc4ccccc4[N+](=O)[O-])c3)c(C(=O)O)n1)CC2 [Example 57, 6-[8-(1,3-benzothiazol-2-ylcarbamoyl)-3,4-dihydroisoquinolin-2(1H)-yl]-3-[1-(2-nitrobenzyl)-1H-pyrazol-4-yl]pyridine-2-carboxylic acid] | 14 |  | 741 |
| O=C(Nc1nc2ccccc2s1)c1cccc2c1CN(c1ccc(-c3cnn(Cc4cccc(-c5ccccc5)c4)c3)c(C(=O)O)n1)CC2 [Example 58, 6-[8-(1,3-benzothiazol-2-ylcarbamoyl)-3,4-dihydroisoquinolin-2(1H)-yl]-3-[1-(biphenyl-3-ylmethyl)-1H-pyrazol-4-yl]pyridine-2-carboxylic acid] | 174 |  | > 1000 |
| CC(C)(C)Cn1cc(-c2ccc(N3CCc4cccc(C(=O)Nc5nc6ccccc6s5)c4C3)nc2C(=O)O)cn1 [Example 59, 6-[8-(1,3-benzothiazol-2-ylcarbamoyl)-3,4-dihydroisoquinolin-2(1H)-yl]-3-[1-(2,2-dimethylpropyl)-1H-pyrazol-4-yl]pyridine-2-carboxylic acid] | 424 | > 1000 |  |
| O=C(Nc1nc2ccccc2s1)c1cccc2c1CN(c1ccc(-c3cnn(CCC4CCCCC4)c3)c(C(=O)O)n1)CC2 [Example 60, 6-[8-(1,3-benzothiazol-2-ylcarbamoyl)-3,4-dihydroisoquinolin-2(1H)-yl]-3-[1-(2-cyclohexylethyl)-1H-pyrazol-4-yl]pyridine-2-carboxylic acid] | 5 |  | 219 |
| O=C(Nc1nc2ccccc2s1)c1cccc2c1CN(c1ccc(-c3cnn(Cc4cccc(C(F)(F)F)c4)c3)c(C(=O)O)n1)CC2 [Example 61, 6-[8-(1,3-benzothiazol-2-ylcarbamoyl)-3,4-dihydroisoquinolin-2(1H)-yl]-3-{1-[3-(trifluoromethyl)benzyl]-1H-pyrazol-4-yl}pyridine-2-carboxylic acid] | 11 |  | 380 |
| O=C(Nc1nc2ccccc2s1)c1cccc2c1CN(c1ccc(-c3cnn(Cc4ccccc4-c4ccccc4)c3)c(C(=O)O)n1)CC2 [Example 62, 6-[8-(1,3-benzothiazol-2-ylcarbamoyl)-3,4-dihydroisoquinolin-2(1H)-yl]-3-[1-(biphenyl-2-ylmethyl)-1H-pyrazol-4-yl]pyridine-2-carboxylic acid] | 61 |  | > 1000 |
| Cc1c(-c2ccc(N3CCc4cccc(C(=O)Nc5nc6ccccc6s5)c4C3)nc2C(=O)O)cnn1CC1CCCC1 [Example 63, 6-[8-(1,3-benzothiazol-2-ylcarbamoyl)-3,4-dihydroisoquinolin-2(1H)-yl]-3-[1-(cyclopentylmethyl)-5-methyl-1H-pyrazol-4-yl]pyridine-2-carboxylic acid] | 2 |  | 27 |
| O=Cc1cccc(Cn2cc(-c3ccc(N4CCc5cccc(C(=O)Nc6nc7ccccc7s6)c5C4)nc3C(=O)O)cn2)c1 [Example 64, 6-[8-(1,3-benzothiazol-2-ylcarbamoyl)-3,4-dihydroisoquinolin-2(1H)-yl]-3-[1-(3-formylbenzyl)-1H-pyrazol-4-yl]pyridine-2-carboxylic acid] | 61 |  | > 1000 |
| O=C(Nc1nc2ccccc2s1)c1cccc2c1CN(c1ccc(-c3cnn(Cc4ccccc4)c3-c3ccccc3)c(C(=O)O)n1)CC2 [Example 65, 6-[8-(1,3-benzothiazol-2-ylcarbamoyl)-3,4-dihydroisoquinolin-2(1H)-yl]-3-(1-benzyl-5-phenyl-1H-pyrazol-4-yl)pyridine-2-carboxylic acid] | 393 |  | > 1000 |
| Cc1c(-c2ccc(N3CCc4cccc(C(=O)Nc5nc6ccccc6s5)c4C3)nc2C(=O)O)cnn1CC1CCCOC1 (stereo not drawn) [Example 66, 6-[8-(1,3-benzothiazol-2-ylcarbamoyl)-3,4-dihydroisoquinolin-2(1H)-yl]-3-[5-methyl-1-(tetrahydro-2H-pyran-3-ylmethyl)-1H-pyrazol-4-yl]pyridine-2-carboxylic acid] | 3 |  | 60 |
| O=C(Nc1nc2ccccc2s1)c1cccc2c1CN(c1ccc(-c3cnn(CC4(c5ccccc5)CCCCC4)c3)c(C(=O)O)n1)CC2 [Example 67, 6-[8-(1,3-benzothiazol-2-ylcarbamoyl)-3,4-dihydroisoquinolin-2(1H)-yl]-3-{1-[(1-phenylcyclohexyl)methyl]-1H-pyrazol-4-yl}pyridine-2-carboxylic acid] | 7 |  | 106 |
| CN(C)Cc1cccc(Cn2cc(-c3ccc(N4CCc5cccc(C(=O)Nc6nc7ccccc7s6)c5C4)nc3C(=O)O)cn2)c1 [Example 68, 6-[8-(1,3-benzothiazol-2-ylcarbamoyl)-3,4-dihydroisoquinolin-2(1H)-yl]-3-(1-{3-[(dimethylamino)methyl]benzyl}-1H-pyrazol-4-yl)pyridine-2-carboxylic acid] | 279 |  | > 1000 |
| CS(=O)(=O)c1cccc(Cn2cc(-c3ccc(N4CCc5cccc(C(=O)Nc6nc7ccccc7s6)c5C4)nc3C(=O)O)cn2)c1 [Example 69, 6-[8-(1,3-benzothiazol-2-ylcarbamoyl)-3,4-dihydroisoquinolin-2(1H)-yl]-3-{1-[3-(methylsulfonyl)benzyl]-1H-pyrazol-4-yl}pyridine-2-carboxylic acid] | 91 |  | > 1000 |
| O=C(Nc1nc2ccccc2s1)c1cccc2c1CN(c1ccc(-c3cnn(CC4CCCCC4)c3C3CC3)c(C(=O)O)n1)CC2 [Example 70, 6-[8-(1,3-benzothiazol-2-ylcarbamoyl)-3,4-dihydroisoquinolin-2(1H)-yl]-3-[1-(cyclohexylmethyl)-5-cyclopropyl-1H-pyrazol-4-yl]pyridine-2-carboxylic acid] | 5 |  | 58 |
| O=C(Nc1nc2ccccc2s1)c1cccc2c1CN(c1ccc(-c3cnn(Cc4ccccc4S(=O)(=O)N4CCOCC4)c3)c(C(=O)O)n1)CC2 [Example 72, 6-[8-(1,3-benzothiazol-2-ylcarbamoyl)-3,4-dihydroisoquinolin-2(1H)-yl]-3-{1-[2-(morpholin-4-ylsulfonyl)benzyl]-1H-pyrazol-4-yl}pyridine-2-carboxylic acid] | 28 |  | > 1000 |
| Cc1c(-c2ccc(N3CCc4cccc(C(=O)Nc5nc6ccccc6s5)c4C3)nc2C(=O)O)cnn1CC1CCC(F)(F)CC1 [Example 73, 6-[8-(1,3-benzothiazol-2-ylcarbamoyl)-3,4-dihydroisoquinolin-2(1H)-yl]-3-{1-[(4,4-difluorocyclohexyl)methyl]-5-methyl-1H-pyrazol-4-yl}pyridine-2-carboxylic acid] | 0.9 |  | 8 |
| O=C(Nc1nc2ccccc2s1)c1cccc2c1CN(c1ccc(-c3cnn(CC4(C(F)(F)F)CCCCC4)c3)c(C(=O)O)n1)CC2 [Example 74, 6-[8-(1,3-benzothiazol-2-ylcarbamoyl)-3,4-dihydroisoquinolin-2(1H)-yl]-3-(1-{[1-(trifluoromethyl)cyclohexyl]methyl}-1H-pyrazol-4-yl)pyridine-2-carboxylic acid] | 6 |  | 335 |
| O=C(Nc1nc2ccccc2s1)c1cccc2c1CN(c1ccc(-c3cnn(C(c4ccccc4)c4ccccc4)c3)c(C(=O)O)n1)CC2 [Example 75, 6-[8-(1,3-benzothiazol-2-ylcarbamoyl)-3,4-dihydroisoquinolin-2(1H)-yl]-3-[1-(diphenylmethyl)-1H-pyrazol-4-yl]pyridine-2-carboxylic acid] | 28 |  | 919 |
| O=C(Nc1nc2ccccc2s1)c1cccc2c1CN(c1ccc(-c3cnn(Cc4ccccc4N4CCOCC4)c3)c(C(=O)O)n1)CC2 [Example 76, 6-[8-(1,3-benzothiazol-2-ylcarbamoyl)-3,4-dihydroisoquinolin-2(1H)-yl]-3-{1-[2-(morpholin-4-yl)benzyl]-1H-pyrazol-4-yl}pyridine-2-carboxylic acid] | 29 |  | > 1000 |
| O=C(Nc1nc2ccccc2s1)c1cccc2c1CN(c1ccc(-c3cnn(C(CCN4CCOCC4)c4ccccc4)c3)c(C(=O)O)n1)CC2 (stereo not drawn) [Example 77, 6-[8-(1,3-benzothiazol-2-ylcarbamoyl)-3,4-dihydroisoquinolin-2(1H)-yl]-3-{1-[3-(morpholin-4-yl)-1-phenylpropyl]-1H-pyrazol-4-yl}pyridine-2-carboxylic acid] | 10 |  | 431 |
| CC(C)(C)OC(=O)N1CCC(Cn2cc(-c3ccc(N4CCc5cccc(C(=O)Nc6nc7ccccc7s6)c5C4)nc3C(=O)O)cn2)CC1 [Example 78, 6-[8-(1,3-benzothiazol-2-ylcarbamoyl)-3,4-dihydroisoquinolin-2(1H)-yl]-3-(1-{[1-(tert-butoxycarbonyl)piperidin-4-yl]methyl}-1H-pyrazol-4-yl)pyridine-2-carboxylic acid] | 379 |  | > 1000 |
